Common to all, as to format: physicochemical
A short description of assay [1]: Batch extraction from simulated HLLW from the PUREX process, gamma spectrometry. Conditions: 0.1 mol/L in TPH/1-octanol (90:10). The text has this:
The feed solution used for the extraction tests is a simulated solution of an HLLW from the PUREX process, the composition of which is shown in Table 4. Table 4: Composition of the simulated HLLW-PUREX solution used for the extraction tests
The composition of the HLLW corresponds to a burn-up of 33 GWd/tHM, the generated volume of HLLW being 5000 1/t of fuel. The feed was spiked with ^241Am, ^244Cm, ^252Cf and ^152Eu. Oxalic acid and N-(2-hydroxyethyl)ethylenediaminotriacetate (HEDTA) were also added before the extraction tests.
500 µL of the aqueous and organic phases were spiked with 10 µL of a tracer solution containing 241Am, 244Cm, 252Cf and ^152Eu, and were equilibrated for 10 minutes while they were stirred vigorously in a vortex stirrer. After the separation of the phases by centrifugation, 200 µL aliquots of each phase were taken for the determination of the concentration of ^241Am and ^152Eu using a high-purity germanium spectrometer system (EG&G Ortec). The nuclides ^241Am, ^244Cm and ^252Cf were measured by alpha spectrometry with an α-Analyst device of the company Canberra-Packard GmbH, Germany.
The concentrations of the stable elements were determined by mass spectrometry with an inductively coupled plasma source (ICP-MS) in a DRC Elan 6100 device of Perkin Elmer Sciex. The aqueous phase was measured directly after the appropriate dilution. The organic phase was analyzed after having mineralized the organic matter by microwave acid digestion and subsequent dilution.
The distribution coefficients were calculated for each element according to section C).
A 0.1 mol/L solution of compound 4 in the "TPH/1-octanol (90:10)%vol" mixture was prepared. Extraction experiments were carried out with said simulated HLLW in a pure form and also adding oxalic acid and HEDTA to it. These complexing agents have shown to be effective in the DIAMEX process for the complexing of Mo, Zr (H2C2O4) and Pd (HEDTA).
Extraction experiments were carried out with said simulated HLLW in a pure form and also adding oxalic acid and HEDTA to it.

The nature of assay [2]: Extraction capability from aqueous 3 mol/L nitric acid. Conditions: 0.1 mol/L in TPH/1-octanol (50:50)%vol; aqueous [HNO3] 3 mol/L spiked with 152Eu(III) and 241Am(III). The protocol:
The organic solutions of the extractant compounds to be tested were prepared dissolving an amount of the extractant compound in the solvent considered in each case to reach the ligand concentration of 0.1 mol/L. The solvents considered were 1-octanol, n-heptane, n-dodecane, the industrial solvent "TPH" (hydrogenated tetrapropylene) used in the "La Hague" reprocessing plant of the COGEMA company (Compagnie générale des matières nucléaires) and different mixtures "TPH/1-octanol or n-dodecane/1-octanol".
Once said solution was obtained, its equilibration was carried out. To that end, 800 µL of the organic solution of the compound to be studied were contacted with 800 µL of nitric acid of 3 mol/L concentration and it was stirred vigorously in an oscillating shaker for 5 minutes. The phases were separated by centrifugation at 5000 rpm. 800 µL of the said organic phase were again contacted with 800 µL of nitric acid of 3 mol/L concentration for another 5 minutes of vigorous shaking. The phases were separated by centrifugation, the organic phase being considered to be equilibrated.
600 µL of the organic phase of the compound to be studied, previously equilibrated, were contacted with 600 µL of aqueous phase consisting of a 3 mol/L nitric acid solution spiked with 600 Bq of ^152Eu and 600 Bq of ^241Am. It was stirred vigorously by means of an oscillating shaker for 30 minutes and the phases were separated by centrifugation at 5000 rpm. 400 µL were taken from each of the phases for determining the concentration of the radionuclides ^152Eu and ^241Am. This determination was carried out by means of the high energy gamma spectrometry technique with a high-purity Ge detector (Canberra Inc.), using the 122 keV line for the determination of ^152Eu concentration and the 59.5 keV line for the determination of ^241Am concentration. The distribution coefficient was calculated by relating the concentration of each of the radionuclides in the organic phase and in the aqueous phase, according to the expression: DM = ([M]org)/([M]aq) [formula]
The distribution coefficients and the selectivity factor of each of them were determined as indicated in sections A) to C).

Assay [3] in a line: Re-extraction with diluted nitric acid solutions. Conditions: 0.1 mol/L in TPH/1-octanol (95:5)%vol; for re-extraction steps necessary: 0.016 mol/L of stable Eu(III) present. The protocol:
0.1 mol/L samples of compound 4 in a "TPH/1-octanol (95:5)%vol" mixture were prepared. Extractions of Am(III) and Eu(III) were carried out from 3 mol/L nitric acid solutions containing only the radionuclides ^152Eu and ^241Am and 3 mol/L nitric acid solutions containing the radionuclides ^152Eu and ^241Am and 0.016 mol/L of stable Eu(III), simulating the total concentration of Ln(III) in a HLLW from the PUREX process. Once the extraction process was carried out, a washing step with a 1 mol/L nitric acid solution was carried out. Then, different re-extraction steps were carried out with 0.01 mol/L nitric acid solutions, simulating a continuous process. The evolution of the concentration of Am(III) and Eu(III) in the organic phase in the different extraction, scrubbing and re-extraction steps is shown in Figure 14.
Nevertheless, it is possible to regenerate the organic solutions of compound 18 for subsequent extraction cycles in an industrial continuous process.

The mark [4] stands for this setting: Oxalic acid 0.2 mol/L, HEDTA 0.05 mol/L, TBP 0.5 mol/L.
The mark [5] stands for this setting: Oxalic acid 0.2 mol/L, HEDTA 0.05 mol/L, TBP No.
The mark [6] stands for this setting: Oxalic acid 0.3 mol/L, HEDTA 0.05 mol/L, TBP 0.5 mol/L.
[7] abbreviates: Oxalic acid 0.3 mol/L, HEDTA 0.05 mol/L, TBP No.
[8] abbreviates: Oxalic acid No, HEDTA No, TBP 0.5 mol/L.
Setting [9] is: Oxalic acid No, HEDTA No, TBP No.

The source of these data is patent EP1923473B1, “Bis-diglycolamides (BISDGA) as new extractants for lanthanides [Ln(III)] and actinides [An(III)] from aqueous high-level wastes” (Universidad Autónoma de Madrid, priority 2006, dated 2008).

Consider “2-Dioctylcarbamoylmethoxy-N-[3-[3-(2-dioctylcarbamoyl-methoxyacetylamino)propoxy]propyl]acetamide [Compound 18]”, for which the “Distribution coefficients Am-241, γ” value is listed as 70 in assay [1] (setting [4]); 100 in assay [1] (setting [5]); 61 in assay [1] (setting [6]); 97 in assay [1] (setting [7]); 65 in assay [1] (setting [8]); 96 in assay [1] (setting [9]). Moreover, in assay [2], the DAm is 29. Besides, the DEu in assay [2] was 177. For the same substance, the re-extraction steps necessary entry in assay [3] (0.01 mol/L nitric acid) is “six re-extraction steps”. Further, the “re-extraction steps for complete re-extraction” value in assay [3] (only the radionuclides 152Eu and 241Am present, 0.01 mol/L nitric acid) is on record as “four re-extraction steps”.
As to “2-Dioctylcarbamoylmethoxy-N-[3-[(2-dioctylcarbamoyl-methoxy-acetylamino)methyl]benzyl]acetamide [Compound 4]”, the “Distribution coefficients Am-241, γ” value in assay [1] (setting [4]) is given as 63; in assay [1] (setting [5]), 131; in assay [1] (setting [6]) it was 82; in assay [1] (setting [7]) it was 141; in assay [1] (setting [8]) it was 70; in assay [1] (setting [9]) it was 99. Moreover, the DAm in assay [2] amounted to 33. The substance further gave a DEu in assay [2] of 141. In addition, the re-extraction steps necessary result in assay [3] (0.01 mol/L nitric acid) was “an additional re-extraction step is necessary”. Besides, the “Am(III) and Eu(III) recovered from the organic phase” value in assay [3] (tracers only (152Eu and 241Am), after three re-extraction steps with 0.01 mol/L nitric acid) is given as “more than 99.9%”.
